Earlier results as cited in patent publication US20220370535A1, “ANTIVIRAL ESSENTIAL OIL COMPOSITIONS” (priority 2020, published 2022).

How the values were obtained:
SARS-CoV-2 = conditions: inhibition of the virus in cell-based assay
SARS-CoV-2, Mpro = SARS-CoV-2, Mpro (Severe acute respiratory syndrome coronavirus 2, UniProt P0DTD1); conditions: nelfinavir, pitavastatin, perampanel, praziquantel compared

Row | Compound | EC50 (SARS-CoV-2) | inhibitor ranking among 4 tested drugs (SARS-CoV-2, Mpro)
1 | CCN(CC)CCCC(C)Nc1ccnc2cc(Cl)ccc12 (centres unmarked) [chloroquine] | 1130 nM | 
2 | Cc1c(O)cccc1C(=O)N[C@@H](CSc1ccccc1)[C@H](O)CN1C[C@H]2CCCC[C@H]2C[C@H]1C(=O)NC(C)(C)C [nelfinavir] |  | most potential inhibitor
